Compound `Clc1ccc([C@H]2C[C@@H](c3c(Cl)cccc3Cl)n3ncnc3N2)cc1` (relative stereo) [Example 19, cis-5-(4-Chlorophenyl)-7-(2,6-dichlorophenyl)-4,5,6,7-tetrahydro-[1,2,4]triazolo[1,5-a]pyrimidine] has a melting point of 246 to 247 °C.
Compound `Fc1ccc([C@@H]2C[C@H](c3ccc(Cl)cc3)Nc3ncnn32)c(Cl)c1` (relative stereo) [Example 21, cis-7-(2-Chloro-4-fluorophenyl)-5-(4-chlorophenyl)-4,5,6,7-tetrahydro-[1,2,4]triazolo[1,5-a]pyrimidine] has a melting point of 224 to 225 °C.
With `Clc1ccc([C@H]2C[C@@H](c3ccccc3Cl)n3ncnc3N2)cc1` (relative stereo) [Example 22, cis-7-(2-Chlorophenyl)-5-(4-chlorophenyl)-4,5,6,7-tetrahydro[1,2,4]triazolo[1,5-a]pyrimidine] the melting point was 202 to 204 °C.
For `CC(C)c1ccc([C@@H]2C[C@H](c3ccc(Cl)cc3)Nc3ncnn32)cc1` (relative stereo) [Example 23, cis-5-(4-Chlorophenyl)-7-(4-isopropylphenyl)-4,5,6,7-tetrahydro[1,2,4]triazolo[1,5-a]pyrimidine], the melting point was 194 to 195 °C.
With `Clc1ccc([C@H]2C[C@@H](c3ccccc3)n3ncnc3N2)cc1` (relative stereo) [Example 24, cis-5-(4-Chlorophenyl)-7-phenyl-4,5,6,7-tetrahydro-[1,2,4]triazolo[1,5-a]pyrimidine] the melting point was 210 to 212 °C.
With `Fc1cccc(Cl)c1[C@@H]1C[C@H](c2ccccc2Cl)Nc2ncnn21` (relative stereo) [Example 25, cis-7-(2-Chloro-6-fluorophenyl)-5-(2-chlorophenyl)-4,5,6,7-tetrahydro-[1,2,4]triazolo[1,5-a]pyrimidine] the melting point was 271 to 272 °C.
`Fc1cccc(Cl)c1[C@@H]1C[C@H](c2cccc(Cl)c2)Nc2ncnn21` (relative stereo) [Example 26, cis-7-(2-Chloro-6-fluorophenyl)-5-(3-chlorophenyl)-4,5,6,7-tetrahydro-[1,2,4]triazolo[1,5-a]pyrimidine] gave a melting point of 262 to 263 °C.
Work on `Fc1ccc([C@H]2C[C@@H](c3c(F)cccc3Cl)n3ncnc3N2)cc1` (relative stereo) [Example 27, cis-7-(2-Chloro-6-fluorophenyl)-5-(4-fluorophenyl)-4,5,6,7-tetrahydro-[1,2,4]triazolo[1,5-a]pyrimidine] yielded a melting point of 240 to 241 °C.
Work on `Fc1cccc(Cl)c1[C@@H]1C[C@H](c2ccc(Br)cc2)Nc2ncnn21` (relative stereo) [Example 28, cis-5-(4-Bromophenyl)-7-(2-chloro-6-fluorophenyl)-4,5,6,7-tetrahydro-[1,2,4]triazolo[1,5-a]pyrimidine] yielded a melting point of 246 to 247 °C.
Work on `CCc1ccc([C@H]2C[C@@H](c3c(F)cccc3Cl)n3ncnc3N2)cc1` (relative stereo) [Example 29, cis-7-(2-Chloro-6-fluorophenyl)-5-(4-ethylphenyl)-4,5,6,7-tetrahydro-[1,2,4]triazolo[1,5-a]pyrimidine] yielded a melting point of 230 to 231 °C.
`COc1ccc([C@H]2C[C@@H](c3c(F)cccc3Cl)n3ncnc3N2)cc1` (relative stereo) [Example 30, cis-7-(2-Chloro-6-fluorophenyl)-5-(4-methoxyphenyl)-4,5,6,7-tetrahydro-[1,2,4]triazolo[1,5-a]pyrimidine] gave a melting point of 221 to 222 °C.
In the case of `Fc1cccc(Cl)c1[C@@H]1C[C@H](c2ccc(-c3ccccc3)cc2)Nc2ncnn21` (relative stereo) [Example 31, cis-5-([1,1′-Biphenyl]-4-yl)-7-(2-chloro-6-fluorophenyl)-4,5,6,7-tetrahydro-[1,2,4]triazolo[1,5-a]pyrimidine], the melting point is reported as 213 to 215 °C.
Compound `Fc1cccc(Cl)c1[C@@H]1C[C@H](c2ccc3ccccc3c2)Nc2ncnn21` (relative stereo) [Example 32, cis-7-(2-Chloro-6-fluorophenyl)-5-(naphthalen-2-yl)-4,5,6,7-tetrahydro-[1,2,4]triazolo[1,5-a]pyrimidine] has a melting point of 224 to 225 °C.
For `Fc1cccc(Cl)c1[C@@H]1C[C@H](c2ccc(Cl)c(Cl)c2)Nc2ncnn21` (relative stereo) [Example 33, cis-7-(2-Chloro-6-fluorophenyl)-5-(3,4-dichlorophenyl)-4,5,6,7-tetrahydro-[1,2,4]triazolo[1,5-a]pyrimidine], the melting point was 252 to 254 °C.
With `Fc1cccc(Cl)c1[C@@H]1C[C@H](c2ccc(Cl)cc2Cl)Nc2ncnn21` (relative stereo) [Example 34, cis-7-(2-Chloro-6-fluorophenyl)-5-(2,4-dichlorophenyl)-4,5,6,7-tetrahydro-[1,2,4]triazolo[1,5-a]pyrimidine] the melting point was 267 to 269 °C.
Compound `Fc1ccc([C@H]2C[C@@H](c3c(F)cccc3Cl)n3ncnc3N2)c(F)c1` (relative stereo) [Example 35, cis-7-(2-Chloro-6-fluorophenyl)-5-(2,4-difluorophenyl)-4,5,6,7-tetrahydro-[1,2,4]triazolo[1,5-a]pyrimidine] has a melting point of 225 °C.
In the case of `Cc1ccc([C@H]2C[C@@H](c3c(F)cccc3Cl)n3ncnc3N2)cc1C` (relative stereo) [Example 36, cis-7-(2-Chloro-6-fluorophenyl)-5-(3,4-dimethylphenyl)-4,5,6,7-tetrahydro-[1,2,4]triazolo[1,5-a]pyrimidine], the melting point is reported as 223 °C.
Compound `Fc1cccc(Cl)c1[C@@H]1C[C@H](c2ccccc2)Nc2ncnn21` (relative stereo) [Example 37, cis-7-(2-Chloro-6-fluorophenyl)-5-phenyl-4,5,6,7-tetrahydro-[1,2,4]triazolo[1,5-a]pyrimidine] has a melting point of 270 to 271 °C.
`Fc1cccc(Cl)c1[C@@H]1C[C@H](c2ccccn2)Nc2ncnn21` (relative stereo) [Example 38, cis-7-(2-Chloro-6-fluorophenyl)-5-(pyridin-2-yl)-4,5,6,7-tetrahydro-[1,2,4]triazolo[1,5-a]pyrimidine] showed a melting point of 232 °C.
Compound `Fc1cccc(Cl)c1C1C=C(c2ccc(Cl)cc2)Nc2ncnn21` (centres unmarked) [Example 1, 7-(2-Chloro-6-fluorophenyl)-5-(4-chlorophenyl)-4,7-dihydro-[1,2,4]triazolo[1,5-a]pyrimidine] has a melting point of 213 to 215 °C.
`Clc1ccc(C2=CC(c3c(Cl)cccc3Cl)n3ncnc3N2)cc1` (centres unmarked) [Example 2, 5-(4-Chlorophenyl)-7-(2,6-dichlorophenyl)-4,7-dihydro-[1,2,4]triazolo[1,5-a]pyrimidine] showed a melting point of 235 °C.
Work on `Fc1ccc(C2C=C(c3ccc(Cl)cc3)Nc3ncnn32)c(Cl)c1` (centres unmarked) [Example 4, 7-(2-Chloro-4-fluorophenyl)-5-(4-chlorophenyl)-4,7-dihydro-[1,2,4]triazolo[1,5-a]pyrimidine] yielded a melting point of 250 to 251 °C.
Work on `Fc1cccc(Cl)c1C1C=C(c2ccccc2Cl)Nc2ncnn21` (centres unmarked) [Example 5, 7-(2-Chloro-6-fluorophenyl)-5-(2-chlorophenyl)-4,7-dihydro-[1,2,4]triazolo[1,5-a]pyrimidine] yielded a melting point of 192 to 193 °C.
Compound `Fc1cccc(Cl)c1C1C=C(c2cccc(Cl)c2)Nc2ncnn21` (centres unmarked) [Example 6, 7-(2-Chloro-6-fluorophenyl)-5-(3-chlorophenyl)-4,7-dihydro-[1,2,4]triazolo[1,5-a]pyrimidine] has a melting point of 246 to 248 °C.
`Fc1ccc(C2=CC(c3c(F)cccc3Cl)n3ncnc3N2)cc1` (centres unmarked) [Example 7, 7-(2-Chloro-6-fluorophenyl)-5-(4-fluorophenyl)-4,7-dihydro-[1,2,4]triazolo[1,5-a]pyrimidine] gave a melting point of 203 to 204 °C.
For `Fc1cccc(Cl)c1C1C=C(c2ccc(Br)cc2)Nc2ncnn21` (centres unmarked) [Example 8, 5-(4-Bromophenyl)-7-(2-chloro-6-fluorophenyl)-4,7-dihydro-[1,2,4]triazolo[1,5-a]pyrimidine], the melting point was 242 to 243 °C.
`CCc1ccc(C2=CC(c3c(F)cccc3Cl)n3ncnc3N2)cc1` (centres unmarked) [Example 9, 7-(2-Chloro-6-fluorophenyl)-5-(4-ethylphenyl)-4,7-dihydro-[1,2,4]triazolo[1,5-a]pyrimidine] showed a melting point of 220 to 221 °C.
In the case of `COc1ccc(C2=CC(c3c(F)cccc3Cl)n3ncnc3N2)cc1` (centres unmarked) [Example 10, 7-(2-Chloro-6-fluorophenyl)-5-(4-methoxyphenyl)-4,7-dihydro-[1,2,4]triazolo[1,5-a]pyrimidine], the melting point is reported as 217 to 218 °C.
Compound `Fc1cccc(Cl)c1C1C=C(c2ccc(-c3ccccc3)cc2)Nc2ncnn21` (centres unmarked) [Example 11, 5-([1,1′-Biphenyl]-4-yl)-7-(2-chloro-6-fluorophenyl)-4,7-dihydro-[1,2,4]triazolo[1,5-a]pyrimidine] has a melting point of 267 °C.
For `Fc1cccc(Cl)c1C1C=C(c2ccc3ccccc3c2)Nc2ncnn21` (centres unmarked) [Example 12, 7-(2-Chloro-6-fluorophenyl)-5-(naphthalen-2-yl)-4,7-dihydro-[1,2,4]triazolo[1,5-a]pyrimidine], the melting point was 237 °C.
Work on `Fc1cccc(Cl)c1C1C=C(c2ccc(Cl)c(Cl)c2)Nc2ncnn21` (centres unmarked) [Example 13, 7-(2-Chloro-6-fluorophenyl)-5-(3,4-dichlorophenyl)-4,7-dihydro-[1,2,4]triazolo[1,5-a]pyrimidine] yielded a melting point of 246 to 247 °C.
In the case of `Fc1cccc(Cl)c1C1C=C(c2ccc(Cl)cc2Cl)Nc2ncnn21` (centres unmarked) [Example 14, 7-(2-Chloro-6-fluorophenyl)-5-(2,4-dichlorophenyl)-4,7-dihydro-[1,2,4]triazolo[1,5-a]pyrimidine], the melting point is reported as 209 to 211 °C.
For `Fc1ccc(C2=CC(c3c(F)cccc3Cl)n3ncnc3N2)c(F)c1` (centres unmarked) [Example 15, 7-(2-Chloro-6-fluorophenyl)-5-(2,4-difluorophenyl)-4,7-dihydro-[1,2,4]triazolo[1,5-a]pyrimidine], the melting point was 186 to 188 °C.
Work on `Cc1ccc(C2=CC(c3c(F)cccc3Cl)n3ncnc3N2)cc1C` (centres unmarked) [Example 16, 7-(2-Chloro-6-fluorophenyl)-5-(3,4-dimethylphenyl)-4,7-dihydro-[1,2,4]triazolo[1,5-a]pyrimidine] yielded a melting point of 217 to 218 °C.
With `Fc1cccc(Cl)c1-c1cc(-c2ccc(Cl)cc2)nc2ncnn12` [Example 17, 7-(2-Chloro-6-fluorophenyl)-5-(4-chlorophenyl)-[1,2,4]triazolo[1,5-a]pyrimidine] the melting point was 238 to 239 °C.

Source: US9533990B2, “Inhibitors of secretion of hepatitis B virus antigens” (priority 2010, dated 2017)
